Experimental data as given in patent publication US20210107874A1, “PHARMACEUTICAL FORMULATION OF CROTONYLAMINOPYRIDINE SALT” (priority 2017, published 2021).
Like-named read-outs stand apart in the source and are kept apart here.

Assay: PK studies of formulations, plasma by HPLC-MS/MS
Type: in vivo
Settings: Cattle; for AUC / Cmax / Tmax: bovine, plasma; for AUC: read-out: AUC; for Cmax: read-out: Cmax; for Tmax: read-out: Tmax
Procedure: The following formulations were prepared and administered to animals. Blood samples were collected at pre-defined time points and the amount of compound present in plasma at the time of sampling was determined by HPLC-MS/MS. Pharmacokinetic parameters were then calculated: Cmax, Tmax, Tlast, AUC. [table]

[1] = sc, 1 mg/kg, FormR50 (L-tartaric acid, 2-pyrrolidone, NaOH, water), 1 mg/kg
[2] = sc, 1 mg/kg, FormS50 (L-tartaric acid, sodium carboxymethyl cellulose, 2-pyrrolidone, NaOH, water), 1 mg/kg
[3] = sc, 1 mg/kg, pH 4.4, FormO60 (FormO type: L-tartaric acid, NaOH to pH 4.4, water), 1 mg/kg
[4] = sc, 1 mg/kg, pH 4.4, FormT50 (DL-Lactic acid, hydrochloric acid up to pH 4.4, water), 1 mg/kg
[5] = sc, 1.25 mg/kg, Form A50 (NMP, propylene glycol, water), 1.25 mg/kg
[6] = sc, 1.25 mg/kg, Form B62.5 (dimethyl acetamide, propylene glycol, water), 1.25 mg/kg
[7] = sc, 1.25 mg/kg, FormC62.5 (propylene glycol, ethanol, Transcutol P), 1.25 mg/kg
[8] = sc, 1.25 mg/kg, FormD62.5 (PEG 300, ethanol, Transcutol P), 1.25 mg/kg
[9] = sc, 1.25 mg/kg, FormE62.5 (polyethylene glycol 300, ethyl alcohol 96%, water), 1.25 mg/kg
[10] = sc, 1.25 mg/kg, FormF62.5 (polyethylene glycol, 1-octanol, 2-pyrrolidone), 1.25 mg/kg
[11] = sc, 1.25 mg/kg, FormG62.5 (benzyl alcohol, ethyl alcohol 96%, polyethylene glycol 300), 1.25 mg/kg
[12] = sc, 1.25 mg/kg, FormH62.5 (DMA, DMSO, 2-pyrrolidone), 1.25 mg/kg
[13] = sc, 1.25 mg/kg, FormK62.5 (2-pyrrolidone, Transcutol P, ethyl lactate), 1.25 mg/kg
[14] = sc, 1.25 mg/kg, FormL50 (DMA, propylene glycol, water), 1.25 mg/kg
[15] = sc, 1.25 mg/kg, FormP62.5 (L-tartaric acid, 2-pyrrolidone, NaOH, water), 1.25 mg/kg
[16] = sc, 1.25 mg/kg, pH 4.3, FormQ62.5 (L-tartaric acid, sodium carboxymethyl cellulose, NaOH up to pH 4.3, water), 1.25 mg/kg
[17] = sc, 1.25 mg/kg, pH 4.4, Form O62.5 (FormO type: L-tartaric acid, NaOH to pH 4.4, water), 1.25 mg/kg
[18] = sc, 1.25 mg/kg, pH 4.6, FormM62.5 (L-tartaric acid, sodium hydroxide up to pH 4.6, water), 1.25 mg/kg
[19] = FormJ62.5 (DMSO, 2-pyrrolidone, ethyl lactate), SC, 1.25 mg/kg

For `CCOc1cc(NCCNC(=O)/C=C/C(F)(F)F)ccn1` [Compound 4, (E)-N-[2-[(2-ethoxy-4-pyridyl)amino]ethyl]-4,4,4-trifluoro-but-2-enamide], the Tlast (FormR50 (L-tartaric acid, 2-pyrrolidone, NaOH, water), SC, 1 mg/kg) was 6.67 h, the Tlast (FormS50 (L-tartaric acid, sodium carboxymethyl cellulose, 2-pyrrolidone, NaOH, water), SC, 1 mg/kg) was 8.67 h and the Tlast (FormT50 (DL-Lactic acid, hydrochloric acid up to pH 4.4, water), SC, 1 mg/kg) was 3.67 h. For the same molecule, the AUC [1] was 248 ng·h/mL, the Cmax [1] was 59.4 ng/mL and the Tmax [1] was 60 min. The AUC [2] was 339 ng·h/mL, the Cmax [2] was 69.3 ng/mL and the Tmax [2] was 79.8 min. For the same molecule, the AUC [3] was 302 ng·h/mL, the Cmax [3] was 374 ng/mL and the Tmax [3] was 15 min. The AUC [4] was 293 ng·h/mL, the Cmax [4] was 281 ng/mL and the Tmax [4] was 25.2 min. It also gave an AUC [5] of 204 ng·h/mL, a Cmax [5] of 127 ng/mL and a Tmax [5] of 26.4 min. The AUC [6] was 98.2 ng·h/mL, the Cmax [6] was 37.4 ng/mL and the Tmax [6] was 30 min. It also gave an AUC [7] of 130 ng·h/mL, a Cmax [7] of 46.4 ng/mL and a Tmax [7] of 39.6 min. It also gave an AUC [8] of 63.2 ng·h/mL, a Cmax [8] of 25.4 ng/mL and a Tmax [8] of 55.2 min. It also gave an AUC [9] of 76.4 ng·h/mL, a Cmax [9] of 45.7 ng/mL and a Tmax [9] of 25.2 min. For the same molecule, the AUC [10] was 78.5 ng·h/mL, the Cmax [10] was 15.2 ng/mL and the Tmax [10] was 37.8 min. The AUC [11] was 44.8 ng·h/mL, the Cmax [11] was 12.5 ng/mL and the Tmax [11] was 140 min. For the same molecule, the AUC [12] was 88.2 ng·h/mL, the Cmax [12] was 42.1 ng/mL and the Tmax [12] was 40.2 min. It also gave an AUC [13] of 86 ng·h/mL, a Cmax [13] of 29.9 ng/mL and a Tmax [13] of 49.8 min. For the same molecule, the AUC [14] was 59.8 ng·h/mL, the Cmax [14] was 28.1 ng/mL and the Tmax [14] was 40.2 min. The AUC [15] was 322 ng·h/mL, the Cmax [15] was 94.2 ng/mL and the Tmax [15] was 49.8 min. It also gave an AUC [16] of 356 ng·h/mL, a Cmax [16] of 297 ng/mL and a Tmax [16] of 34.8 min. For the same molecule, the AUC [17] was 358 ng·h/mL, the Cmax [17] was 300 ng/mL and the Tmax [17] was 30 min. For the same molecule, the AUC [18] was 336 ng·h/mL, the Cmax [18] was 350 ng/mL and the Tmax [18] was 15 min. It also gave an AUC [19] of 99.6 ng·h/mL, a Cmax [19] of 37.1 ng/mL and a Tmax [19] of 110 min.
